From the PolyMetriX glass transition set

glass transition temperature [°C] | SMILES
197.00 | *CC(*)(CC(=O)OC)C(=O)OC12CC3CC(CC(C3)C1)C2 (repeat unit)
163.00 | *c1ccc(NC(=O)CCCCCC(=O)Nc2ccc(S(*)(=O)=O)cc2)cc1 (repeat unit)
320.00 | *Nc1ccc(-c2ccc(NC(=O)c3ccc(NC(=O)c4ccc([Si](C)(C)c5ccc(C(=O)Nc6ccc(C(*)=O)cc6)cc5)cc4)cc3)cc2)cc1 (repeat unit)
43.00 | *C1C(=O)N(CCCCCCCCOc2ccc(-c3ccc(C#N)cc3)cc2)C(=O)C1* (repeat unit)
259.00 | *c1ccc(Oc2ccc(C(=O)c3ccc(Oc4ccc(-c5nc(-c6ccccc6)[nH]c5*)cc4)cc3)cc2)cc1 (repeat unit)
267.00 | *c1ccc(Oc2ccc(N3C(=O)c4cccc(Oc5ccc(S(=O)(=O)c6ccc(Oc7cccc8c7C(=O)N(*)C8=O)cc6)cc5)c4C3=O)cc2)cc1 (repeat unit)
31.00 | *CC(*)(C)C(=O)OCCCCCCc1ccc(/C(C)=C/c2ccc(OC)cc2)cc1 (repeat unit)
155.00 | *Oc1ccc2ccc(Oc3ccc(C(=O)Nc4ccc(C(C)(C)c5ccc(C(C)(C)c6ccc(NC(=O)c7ccc(*)cc7)cc6)cc5)cc4)cc3)cc2c1 (repeat unit)
210.00 | *Oc1ccc(Oc2ccc(S(=O)(=O)c3ccc(*)cc3)cc2)cc1 (repeat unit)
106.00 | *OC(COC(=O)C1CCC(C(*)=O)CC1)COc1ccc(/N=N/c2ccc(C#N)cc2)cc1 (repeat unit)
36.00 | *CCCOC(=O)OCCCCCCOC(=O)OCCCn1c(=O)c2cc3c(=O)n(*)c(=O)c3cc2c1=O (repeat unit)
145.00 | *Oc1ccc(C(=O)c2cccc(C(=O)c3ccc(Oc4ccc(Cc5ccc(*)cc5)cc4)cc3)c2)cc1 (repeat unit)
182.00 | *C(=O)Oc1c(C)cc(C(C)(C)c2cc(C)c(OC(=O)c3ccc4c(c3)C(=O)N(c3ccc(-c5ccc(N6C(=O)c7ccc(*)cc7C6=O)cc5C)c(C)c3)C4=O)c(C)c2)cc1C (repeat unit)
145.00 | *CC(O)COc1c(C)cc(C(C)(C)c2cc(C)c(OCC(O)COc3ccc(S(=O)(=O)c4ccc(O*)cc4)cc3)c(C)c2)cc1C (repeat unit)
78.00 | *C(=O)OC1CC(*)N(C(=O)OCc2ccccc2)C1 (repeat unit)
94.00 | *OCCOC(=O)c1ccc(C(=O)OCCOc2nc(-c3ccc(OCCCC)cc3)nc(*)c2-c2ccc(OC)cc2)cc1 (repeat unit)
241.00 | *c1ccc(Oc2ccc(C(c3ccc(Oc4ccc(-c5nc(*)nc(-c6ccccc6)n5)cc4)cc3)(C(F)(F)F)C(F)(F)F)cc2)cc1 (repeat unit)
311.00 | *C(=O)c1cc2c(cc1Cl)C(=O)N(c1cc(Cl)cc(N3C(=O)c4cc(*)c(Cl)cc4C3=O)c1)C2=O (repeat unit)
218.00 | *c1ccc(C(c2ccc(N3C(=O)c4ccc(Oc5ccc6cc(Oc7ccc8c(c7)C(=O)N(*)C8=O)ccc6c5)cc4C3=O)cc2)(C(F)(F)F)C(F)(F)F)cc1 (repeat unit)
38.00 | *CC(*)(C)C(=O)OCCCCCCOc1cccc(C(=O)Oc2ccc(C#N)cc2)c1 (repeat unit)
140.00 | *c1ccc2c(c1)Sc1cc(-c3ccc(-c4ccc(*)s4)s3)ccc1N2CCCCCC (repeat unit)

glass transition temperature [°C] | SMILES
-1.00 | *CCCCCCCCCC(c1ccc(O)cc1)C(*)c1ccc(O)cc1C (repeat unit)
45.00 | *Oc1c(C)cc(C(C)(C)c2cc(C)c(OC(=O)CCCCCCCCC(*)=O)c(C)c2)cc1C (repeat unit)
150.00 | *c1cnc(C2C(c3ccccc3)C(*)C2c2ccccc2)cn1 (repeat unit)
131.00 | *CCN(CCOC(=O)c1ccc(C(=O)O*)c(OCCCCC)c1)c1ccc(/N=N/c2nc(C#N)c(C#N)[nH]2)cc1 (repeat unit)
78.00 | *c1ccc(NC(=O)c2cccc(C(=O)Nc3ccc(S(*)(=O)=O)cc3)c2)cc1 (repeat unit)
236.00 | *C(=O)c1ccc(Oc2ccc(Oc3ccc(C(=O)c4ccc5c(c4)C(=O)N(c4ccc(N6C(=O)c7ccc(*)cc7C6=O)cc4)C5=O)cc3)cc2)cc1 (repeat unit)
119.50 | *CCN(CCOC(=O)Nc1ccc(-c2ccc(NC(=O)O*)c(C)c2)cc1C)c1ccc(/N=N/c2ccc([N+](=O)[O-])cc2)cc1 (repeat unit)
275.00 | *CC(*)c1ccc(B(Oc2ccc(B3OC(C)(C)C(C)(C)O3)c3cccnc23)c2ccc(C(C)(C)C)cc2)cc1 (repeat unit)
118.00 | *O[Si](C)(C)c1ccc2cc3cc([Si](*)(C)C)ccc3cc2c1 (repeat unit)
237.00 | *C(=O)Nc1ccc(C)cc1N1C(=O)CC(N2C(=O)c3ccc(*)cc3C2=O)C1=O (repeat unit)
118.00 | *Oc1ccc(Oc2ccc(/C=N/CCCCCCCCCCCC/N=C/c3ccc(*)cc3)cc2)cc1 (repeat unit)
202.00 | *OC1C(COC(C)=O)OC(*)C(OC(C)=O)C1O (repeat unit)
266.00 | *Sc1ccc(Sc2ccc(Sc3cccc4c3C(=O)N(N3C(=O)c5cccc(*)c5C3=O)C4=O)cc2)cc1 (repeat unit)
362.50 | *c1ccc2c(c1)C(=O)N(c1ccc(Oc3c(C(C)(C)C)cc(-c4ccc(N5C(=O)c6ccc(C(*)(C(F)(F)F)C(F)(F)F)cc6C5=O)cc4)cc3C(C)(C)C)c(C(F)(F)F)c1)C2=O (repeat unit)
22.00 | *CCCOC(=O)NNC(=O)CCCCCCCCC(=O)NNC(=O)O* (repeat unit)
56.00 | *Oc1ccc(OC(=O)c2cc(OCCCCCCOCC3CCCN3c3ccc([N+](=O)[O-])cc3)c(C(*)=O)cc2OCCCCCCOCC2CCCN2c2ccc([N+](=O)[O-])cc2)cc1 (repeat unit)
252.00 | *c1ccc(OC(=O)c2ccc(C(=O)Oc3ccc(C4(*)c5ccccc5Oc5ccccc54)cc3)cc2)cc1 (repeat unit)
92.00 | *CCCCCCCCc1nc2cc(NC(=O)CCCCC(=O)Nc3ccc4oc(*)nc4c3)ccc2o1 (repeat unit)
301.00 | *Oc1ccc(-c2ccc(Oc3ccc4ccccc4c3-c3c(*)ccc4ccccc34)c3ccccc23)c2ccccc12 (repeat unit)
100.00 | *CCCCCCOc1ccc(C(=O)N(C(=O)c2ccc(O*)cc2)c2ccccc2)cc1 (repeat unit)
200.00 | */C(=C(/*)c1cccc([Si](C)(C)C)c1)c1ccccc1 (repeat unit)

SMILES | glass transition temperature [°C]
*c1ccc2[nH]c(*)nc2c1 (repeat unit) | 398.00
*Oc1ccc(C(*)=O)cc1CCCCC (repeat unit) | 50.00
*CC/C=C(/*)CCCCCCC (repeat unit) | -83.00
*CC(*)C(=O)OCCSCC#N (repeat unit) | -24.00
*CCCCCCC(Cl)C(*)Cl (repeat unit) | -18.00
*CC(*)(C)C(=O)OC1CCC(C)CC1 (repeat unit) | 109.00
